Here are results for 30 compounds from ChEMBL document CHEMBL1144409, “Synthesis of new quinoxaline-2-carboxylate 1,4-dioxide derivatives as anti-Mycobacterium tuberculosis agents” (J Med Chem, 2005).

≈ marks a conversion by molar mass, not a printed value.

The nature of data set [1]: Selectivity index (ratio of IC50 and MIC) value was determined. The note with it: cercopithecidae.
A short description of data set [2]: Compound was tested for cytotoxicity in Vero cells. The format is cell-based. The note with it: Chlorocebus sabaeus.
Data set [3] relates to Mycobacterium tuberculosis. Briefly: In vitro actual minimum inhibitory concentration value of the compound was determined against Mycobacterium tuberculosis. The format is functional.
In data set [4] the test system is Mycobacterium tuberculosis. The experiment in a line: In vitro minimum inhibitory concentration value against Mycobacterium tuberculosis H37Rv strain in alamar assay. The format is functional.
The subject of data set [5] is Mycobacterium tuberculosis. Briefly: In vitro minimum inhibitory concentration value against Mycobacterium tuberculosis erdman strain in alamar assay. The data set is classed as functional.
For data set [6], the system named is Mycobacterium tuberculosis. Briefly: In vitro minimum inhibitory concentration value against Mycobacterium tuberculosis H37Rv strain in bactec assay. The format is functional.
For data set [7], the system named is Mycobacterium tuberculosis. Briefly: In vitro ratio of EC90 and MIC value of the compound was determined. The format is functional.
Data set [8] deals with Mycobacterium tuberculosis. The experiment in a line: In vitro effective concentration of the compound causing 90%reduction in residualmycobacterium tuberculosis growth after 7 days compared to untreated control. The data set is classed as functional. The note with it: 168 h.
Data set [9] has as its system Mycobacterium tuberculosis. Briefly: In vitro effective concentration of the compound causing 99%reduction in residualmycobacterium tuberculosis growth after 7 days compared to untreated control. The data set is classed as functional. The note with it: 168 h.
Data set [10] relates to Mycobacterium tuberculosis. Briefly: In vitro actual minimum inhibitory concentration value against Mycobacterium tuberculosis. The format is functional.
Data set [11] in a line: Compound was tested for cytotoxicity in Vero cells; Insoluble. The data set is classed as cell-based, Chlorocebus sabaeus.
Data set [12] deals with Mycobacterium tuberculosis. Briefly: In vitro actual minimum inhibitory concentration value of the compound was determined against Mycobacterium tuberculosis H37Rv strain; Range is 0.015-0.125. The format is functional.

Usually IC50 stands for the concentration that inhibits the measured activity by half. A higher IC50 goes with lower potency. Broadly, the MIC is the least concentration at which growth counts as inhibited. Turning to `CCc1c(C(=O)OC)[n+]([O-])c2cc(F)c(F)cc2[n+]1[O-]`, in data set [1], the SI was found to be 0.77. The same compound returned an IC50 in data set [2] of 1.2 µg/mL (≈ 4.22 µM). Further, in data set [3], the minimal inhibitory concentration (MIC) came out at 1.56 µg/mL (≈ 5.49 µM).

In the case of `C=CCc1c(C(=O)OC)[n+]([O-])c2cc(C)c(C)cc2[n+]1[O-]`, the MIC in [3] was > 6.25 µg/mL.

Regarding `CCOC(=O)COC(=O)c1c(CC)[n+]([O-])c2ccc(Cl)cc2[n+]1[O-]`, in data set [1], the SI is 1.2. Moreover, half-maximal inhibition in data set [2] (IC50) was put at 1.89 µg/mL (≈ 5.33 µM). The same compound came in with a minimal inhibitory concentration (MIC) in [3] of 1.56 µg/mL (≈ 4.4 µM).

On to `CCc1c(C(=O)OC)[n+]([O-])c2cc(C)c(C)cc2[n+]1[O-]`, for which the SI in data set [1] is > 10. The MIC is 0.39 µg/mL (≈ 1.41 µM) in [4], 0.39 µg/mL (≈ 1.41 µM) in data set [5], 0.2 µg/mL (≈ 0.724 µM) in data set [6] and 6.25 µg/mL (≈ 22.6 µM) in data set [3]. In addition, in data set [2], the IC50 is > 62.5 µg/mL.

With `C=CCc1c(C(=O)OC)[n+]([O-])c2cc(Cl)c(Cl)cc2[n+]1[O-]`, in [1], the SI was found to be 0.93. The IC50 in [2] turned out to be 5.8 µg/mL (≈ 17.6 µM). For the same compound, inhibition of growth in [3] (MIC) required 6.25 µg/mL (≈ 19 µM).

As for `COC(=O)c1c(C)[n+]([O-])c2cc(Cl)c(Cl)cc2[n+]1[O-]`, the SI in data set [1] was 8.4. This compound also yielded an IC50 in [2] of 1.68 µg/mL (≈ 5.54 µM). Further, inhibition of growth in data set [3] (MIC) required 0.2 µg/mL (≈ 0.66 µM).

Take `COC(=O)c1c(C(C)(C)C)[n+]([O-])c2cc(C)c(C)cc2[n+]1[O-]`: the MIC in data set [3] is > 6.25 µg/mL.

For `COC(=O)c1c(Cc2ccccc2)[n+]([O-])c2ccc(OC)cc2[n+]1[O-]`, the SI in data set [1] was > 80.1. In data set [2], the half-maximal inhibitory concentration (IC50) is > 62.5 µg/mL. The lowest concentration to inhibit growth in data set [3] (MIC) was 0.78 µg/mL (≈ 2.29 µM).

Broadly, the EC90 is the concentration needed for an effect of 90%. What is called EC99 is the concentration needed for an effect of 99%. Low values mean greater potency, high ones weaker potency. As to `CCc1c(C(=O)OC)[n+]([O-])c2ccccc2[n+]1[O-]`, in data set [7], the Ratio is 0.56. Further, the SI in [1] came out at 30.1. In addition, the EC90 in [8] was 0.88 µg/mL (≈ 3.54 µM). This compound returned a concentration for an effect of 99% (EC99) in data set [9] of 3.32 µg/mL. Besides, in data set [2], the IC50 was found to be 47 µg/mL (≈ 189 µM). The same compound yielded an MIC in data set [3] of 1.56 µg/mL (≈ 6.28 µM).

Turning to `CCc1c(C(=O)OC)[n+]([O-])c2cc(C)ccc2[n+]1[O-]`, the SI in data set [1] was > 40.1. Besides, the IC50 in data set [2] was > 62.5 µg/mL. In data set [3], this compound returned an MIC of 1.56 µg/mL (≈ 5.95 µM).

Regarding `COC(=O)c1c(C)[n+]([O-])c2ccccc2[n+]1[O-]`, the SI in [1] is > 6.41. Besides, the 50% inhibitory concentration (IC50) in data set [2] was > 10 µg/mL. In data set [3], this compound returned an MIC of 1.56 µg/mL (≈ 6.66 µM).

With `COCCc1c(C(=O)OC)[n+]([O-])c2cc(Cl)c(Cl)cc2[n+]1[O-]`, the Ratio in data set [7] is listed as >4. Further, the SI in data set [1] was 11.5. The EC90 in [8] was > 1.56 µg/mL. For the same compound, the EC99 in data set [9] is > 1.56 µg/mL. The compound further gave an IC50 in [2] of 4.5 µg/mL (≈ 13 µM). In data set [3], this compound registered an MIC of 0.39 µg/mL (≈ 1.12 µM).

As for `COC(=O)c1c(C)[n+]([O-])c2ccc(OC)cc2[n+]1[O-]`, in data set [1], the SI amounted to 33.7. For the same compound, the IC50 in [2] amounted to 52.6 µg/mL (≈ 199 µM). In data set [3], this compound showed an MIC of 1.56 µg/mL (≈ 5.9 µM).

`CCc1c(C(=O)OC)[n+]([O-])c2cc(Cl)c(Cl)cc2[n+]1[O-]`: the Ratio in [7] is recorded as >3.15. For the same compound, in data set [1], the SI was > 20. The EC90 in data set [8] was found to be 0.63 µg/mL (≈ 1.99 µM). The EC99 in [9] came to 5.99 µg/mL. Further, the IC50 in data set [2] worked out at 4 µg/mL (≈ 12.6 µM). Also, the MIC in [3] was < 0.2 µg/mL.

Take `CCc1c(C(=O)OC)[n+]([O-])c2cc(Cl)ccc2[n+]1[O-]`: the Ratio in [7] worked out at 2.3. Besides, the SI in data set [1] is > 50. This compound also registered an EC90 in data set [8] of 0.46 µg/mL (≈ 1.63 µM). Moreover, in data set [9], the EC99 came to 1.14 µg/mL. For the same compound, in data set [2], the IC50 was > 10 µg/mL. Moreover, the minimum inhibitory concentration (MIC) in [3] amounted to 0.2 µg/mL (≈ 0.708 µM).

For `COC(=O)c1c(C(C)(C)C)[n+]([O-])c2ccc(Cl)cc2[n+]1[O-]`, in data set [3], the MIC is > 6.25 µg/mL.

Turning to `COC(=O)c1c(Cc2ccccc2)[n+]([O-])c2ccccc2[n+]1[O-]`, the Ratio in [7] is on record as 1.5. Further, the SI in [1] turned out to be 470. For the same compound, in [8], the 90% effect level (EC90) was put at 0.15 µg/mL (≈ 0.483 µM). Moreover, the EC99 in data set [9] is > 2 µg/mL. In [2], this compound showed a concentration for half-maximal inhibition (IC50) of 47 µg/mL (≈ 151 µM). Besides, inhibition of growth in [3] (MIC) required 0.1 µg/mL (≈ 0.322 µM).

Regarding `COC(=O)c1c(C(C)(C)C)[n+]([O-])c2cc(Cl)c(Cl)cc2[n+]1[O-]`, in data set [3], the MIC was > 6.25 µg/mL.

Take `COC(=O)c1c(Cc2ccccc2)[n+]([O-])c2cc(F)c(F)cc2[n+]1[O-]`: in [3], the MIC was > 6.25 µg/mL.

In the case of `COC(=O)c1c(C)[n+]([O-])c2ccc(C)cc2[n+]1[O-]`, in data set [7], the Ratio is on record as 1.24. In data set [1], the SI is > 40.1. In data set [8], it took 1.94 µg/mL (≈ 7.82 µM) to reach the 90% level (EC90). This compound had an EC99 in data set [9] of 5.83 µg/mL. Besides, in data set [2], the IC50 is > 62.5 µg/mL. Further, in data set [3], the minimal inhibitory concentration (MIC) is 1.56 µg/mL (≈ 6.28 µM).

For the compound `COC(=O)c1c(Cc2ccccc2)[n+]([O-])c2ccc(Cl)cc2[n+]1[O-]`, the Ratio in [7] was determined as 0.01. Also, the SI in data set [1] came out at 76. In data set [8], this compound registered an EC90 of 0.0005 µg/mL (≈ 0.00145 µM). In data set [9], the 99% effect level (EC99) was put at 0.08 µg/mL. For the same compound, the IC50 in data set [2] came to 7.6 µg/mL (≈ 22 µM). Moreover, 0.1 µg/mL (≈ 0.29 µM) was the least that counted as inhibitory in [3] (MIC).

In the case of `COC(=O)c1c(C(C)(C)C)[n+]([O-])c2ccccc2[n+]1[O-]`, in data set [3], the minimal inhibitory concentration (MIC) was > 6.25 µg/mL.

For `COC(=O)c1c(Cc2ccccc2)[n+]([O-])c2ccc(C)cc2[n+]1[O-]`, the Ratio in [7] is listed as 2.9. The SI in data set [1] was 144. The compound also gave an EC90 in [8] of 1.13 µg/mL (≈ 3.48 µM). In addition, in [9], the EC99 amounted to 3.79 µg/mL. The compound further displayed an IC50 in data set [2] of 56 µg/mL (≈ 173 µM). The MIC in [3] was found to be 0.39 µg/mL (≈ 1.2 µM).

Turning to `CCOC(=O)COC(=O)c1c(CC)[n+]([O-])c2cc(Cl)c(Cl)cc2[n+]1[O-]`, the SI in data set [1] amounted to 6.1. The IC50 in [2] amounted to 1.22 µg/mL (≈ 3.13 µM). In data set [3], this compound returned an MIC of 0.2 µg/mL (≈ 0.514 µM).

Regarding `COC(=O)c1c(C)[n+]([O-])c2cc(C)c(C)cc2[n+]1[O-]`, the Ratio in data set [7] stood at 0.52. Also, the SI in data set [1] was > 20. Further, in data set [8], the EC90 was 1.64 µg/mL (≈ 6.25 µM). Besides, the EC99 in [9] is 6.15 µg/mL. In addition, the IC50 in data set [2] was > 62.5 µg/mL. In data set [3], this compound returned an MIC of 3.13 µg/mL (≈ 11.9 µM).

With `COC(=O)c1c(Cc2ccccc2)[n+]([O-])c2cc(Cl)c(Cl)cc2[n+]1[O-]`, the minimum inhibitory concentration (MIC) in [4] is ≤ 3.13 µg/mL; in data set [10] it was 6.25 µg/mL (≈ 16.5 µM); in [5], ≤ 3.13 µg/mL; in [6] it was 6.25 µg/mL (≈ 16.5 µM).

`COC(=O)c1c(C)[n+]([O-])c2cc(F)c(F)cc2[n+]1[O-]`: in data set [1], the SI was 3.8. The IC50 in data set [2] was found to be 1.48 µg/mL (≈ 5.48 µM). The compound further had an MIC in [3] of 0.39 µg/mL (≈ 1.44 µM).

Consider `COC(=O)c1c(Cc2ccccc2)[n+]([O-])c2cc(C)c(C)cc2[n+]1[O-]`, for which, in [11], the half-maximal inhibitory concentration (IC50) entry was “Insoluble”. For the same compound, the MIC in [3] is 3.13 µg/mL (≈ 9.25 µM).

Regarding `CCc1c(C(=O)OC)[n+]([O-])c2cc(OC)ccc2[n+]1[O-]`, the SI in data set [1] was found to be 6.4. Moreover, in data set [2], the IC50 came to 39.9 µg/mL (≈ 144 µM). In [3], this compound displayed an MIC of 6.25 µg/mL (≈ 22.5 µM).

`CO[C@H]1/C=C/O[C@@]2(C)Oc3c(C)c(O)c4c(O)c(c(/C=N/N5CCN(C)CC5)c(O)c4c3C2=O)NC(=O)/C(C)=C\C=C\[C@H](C)[C@H](O)[C@@H](C)[C@@H](O)[C@@H](C)[C@H](OC(C)=O)[C@@H]1C` [RIFAMPIN]: 0.125 µg/mL (≈ 0.152 µM) was the least that counted as inhibitory in data set [12] (MIC).
